{"source": "ChEMBL document CHEMBL1150704", "about": "“Microbial hydroxylation of quadrone to 8a-hydroxyquadrone” (J Nat Prod, 1987)", "test_system": "P388", "assay": "Cytotoxicity against mouse P388 cells", "assay_type": "functional, cell-based", "note": "Activity calls are given as the source filed them. No cut-off for these calls is given here."}
{"compound": "CC1(C)C[C@@]23[C@@H]4CC(=O)[C@@H]2COC(=O)[C@]3(O)CC[C@H]41", "values": [{"measurement": "Activity", "result": "inactive"}]}
